Experiments:
TF/FVIIa = TF/FVIIa (Homo sapiens, UniProt P08709); test: TF/factor VIIa inhibition (TF/FVIIa-IC50); assay type: biochemical
Source text: The inhibition of factor VIIa by the compounds according to the invention and the measurement of the anticoagulant and antithrombotic activity can be determined by conventional in-vitro or in-vivo methods. A conventional method for the measurement of the inhibition of factor VIIa is described, for example, by H. F. Ronning et al. in Thrombosis Research 1996, 84, 73-81.

FXa = FXa (Homo sapiens, UniProt P00742); test: Factor Xa inhibition (FXa-IC50); assay type: biochemical
Sequence of FXa (P00742 235-488 limits assumed): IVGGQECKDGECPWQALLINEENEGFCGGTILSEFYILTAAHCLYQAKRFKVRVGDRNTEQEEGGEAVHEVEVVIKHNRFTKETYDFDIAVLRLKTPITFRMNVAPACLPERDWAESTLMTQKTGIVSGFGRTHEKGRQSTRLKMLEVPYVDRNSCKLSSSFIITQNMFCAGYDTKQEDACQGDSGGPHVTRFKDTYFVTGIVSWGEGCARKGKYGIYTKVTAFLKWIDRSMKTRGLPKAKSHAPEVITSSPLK
Sequence of FXa (P00742 41-179 limits assumed): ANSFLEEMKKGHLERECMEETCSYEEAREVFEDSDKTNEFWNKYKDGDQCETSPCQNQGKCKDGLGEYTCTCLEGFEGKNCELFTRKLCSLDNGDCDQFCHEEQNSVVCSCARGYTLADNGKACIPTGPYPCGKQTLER
Source text: The inhibition of factor Xa by the compounds according to the invention and the measurement of the anticoagulant and antithrombotic activity can be determined by conventional in-vitro or in-vivo methods. A suitable method is described, for example, by J. Hauptmann et al. in Thrombosis and Haemostasis 1990, 63, 220-223.
The inhibition of factor Xa can be measured, for example, by the method of T. Hara et al. in Thromb. Haemostas. 1994, 71, 314-319.

Sequence of TF/FVIIa (P08709 213-466 limits assumed): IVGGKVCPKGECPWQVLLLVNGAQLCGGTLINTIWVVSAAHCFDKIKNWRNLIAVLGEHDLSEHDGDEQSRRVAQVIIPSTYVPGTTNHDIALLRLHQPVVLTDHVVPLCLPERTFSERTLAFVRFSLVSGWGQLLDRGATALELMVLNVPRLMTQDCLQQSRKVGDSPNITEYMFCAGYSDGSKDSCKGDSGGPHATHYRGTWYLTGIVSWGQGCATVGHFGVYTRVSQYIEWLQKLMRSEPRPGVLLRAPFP
Sequence of TF/FVIIa (P08709 61-212 limits assumed): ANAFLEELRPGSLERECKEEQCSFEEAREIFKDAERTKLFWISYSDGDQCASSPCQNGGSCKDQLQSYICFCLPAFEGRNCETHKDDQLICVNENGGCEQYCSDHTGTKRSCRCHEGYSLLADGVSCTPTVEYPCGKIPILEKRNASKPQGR
Sequence of TF/FVIIa (P13726 33-295 partner): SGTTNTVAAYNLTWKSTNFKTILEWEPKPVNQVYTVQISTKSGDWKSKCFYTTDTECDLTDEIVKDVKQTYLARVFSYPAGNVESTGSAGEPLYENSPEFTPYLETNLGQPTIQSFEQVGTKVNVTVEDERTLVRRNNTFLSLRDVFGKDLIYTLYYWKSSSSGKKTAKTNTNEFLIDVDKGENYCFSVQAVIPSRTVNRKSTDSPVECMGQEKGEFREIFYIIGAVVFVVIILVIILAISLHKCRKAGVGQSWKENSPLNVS

Structure (SMILES): CCCC(Oc1ccc2ccnc(N)c2c1)C(=O)Nc1ccc(N2CCCCC2=O)cc1 (stereo not shown) [AA, N-[4-(2-Oxopiperidin-1-yl)phenyl]-2-(1-aminoisoquinolin-7-yloxy)-pentanamide]
- IC50 (TF/FVIIa): 220 nM
- IC50 (FXa): 350 nM

Structure (SMILES): Nc1nccc2ccc(OC(C(=O)Nc3ccc(N4CCCCC4=O)cc3)c3ccccc3)cc12 (stereo not shown) [AB, N-[4-(2-oxopiperidin-1-yl)phenyl]-2-(1-aminoisoquinolin-7-yloxy)-2-phenylacetamide]
- IC50 (TF/FVIIa): 200 nM
- IC50 (FXa): 350 nM

From patent publication US7902223B2, “Phenyl derivatives as factor XA inhibitors” (Merck Patent GmbH, priority 2001, dated 2011)
